From patent publication US12459922B2 (Gilead Sciences, Inc., priority 2022, dated 2025)

The molecules below were run on endogenous cellular STAT1 (phosphorylated at Tyr701) in NCI-H1373 cells (assay: Phospho-STAT1 (Tyr701) LANCE Ultra TR-FRET Detection Assay). Conditions: Homo sapiens, NCI-H1373, 48 h, phospho-STAT1 (Tyr701) induction, read-out: NH1373 pSTAT1 EC50.
Format: cell-based

EC50	SMILES
17.4 nM	CC[C@@H](CCCn1ccc2cc(-c3cnc(C(F)(F)F)c(N)n3)c(F)cc2c1=O)Nc1cn[nH]c(=O)c1C(F)(F)F [Example 339, (S)-6-(6-amino-5-(trifluoromethyl)pyrazin-2-yl)-7-fluoro-2-(4-((6-oxo-5-(trifluoromethyl)-1,6-dihydropyridazin-4-yl)amino)hexyl)isoquinolin-1(2H)-one]
97.1 nM	CC[C@@H](CCCn1cnc2cc(-c3ccc(OC(F)F)cn3)c(F)cc2c1=O)Nc1cn[nH]c(=O)c1C(F)(F)F [Example 340, (S)-7-(5-(difluoromethoxy)pyridin-2-yl)-6-fluoro-3-(4-((6-oxo-5-(trifluoromethyl)-1,6-dihydropyridazin-4-yl)amino)hexyl)quinazolin-4(3H)-one]
1.95 nM	C[C@@H](CCCn1ccc2cc(-c3ncc(Cl)c(N)n3)c(F)c(F)c2c1=O)Nc1cn[nH]c(=O)c1C(F)(F)F [Example 341, (S)-6-(4-amino-5-chloropyrimidin-2-yl)-7,8-difluoro-2-(4-((6-oxo-5-(trifluoromethyl)-1,6-dihydropyridazin-4-yl)amino)pentyl)isoquinolin-1(2H)-one]
9.84 nM	CC[C@@H](CCCn1cnc2cc(-c3ncc(Cl)c(N)n3)c(F)cc2c1=O)Nc1cn[nH]c(=O)c1C(F)(F)F [Example 342, (S)-7-(4-amino-5-chloropyrimidin-2-yl)-6-fluoro-3-(4-((6-oxo-5-(trifluoromethyl)-1,6-dihydropyridazin-4-yl)amino)hexyl)quinazolin-4(3H)-one]
3.56 nM	CC[C@@H](CCCn1ccc2cc(-c3ncc(OC)c(N)n3)c(F)cc2c1=O)Nc1cn[nH]c(=O)c1C(F)(F)F [Example 343, (S)-6-(4-amino-5-methoxypyrimidin-2-yl)-7-fluoro-2-(4-((6-oxo-5-(trifluoromethyl)-1,6-dihydropyridazin-4-yl)amino)hexyl)isoquinolin-1(2H)-one]
28.2 nM	C[C@@H](CCCn1ccc2cc(-c3ncc(C4(F)COC4)c(N)n3)c(F)cc2c1=O)Nc1cn[nH]c(=O)c1C(F)(F)F [Example 344, (S)-6-(4-amino-5-(3-fluorooxetan-3-yl)pyrimidin-2-yl)-7-fluoro-2-(4-((6-oxo-5-(trifluoromethyl)-1,6-dihydropyridazin-4-yl)amino)pentyl)isoquinolin-1(2H)-one]
6.71 nM	CC[C@@H](CCCn1ccc2cc(-c3ncc(C(F)F)cn3)c(F)cc2c1=O)Nc1cn[nH]c(=O)c1C(F)(F)F [Example 345, (S)-6-(5-(difluoromethyl)pyrimidin-2-yl)-7-fluoro-2-(4-((6-oxo-5-(trifluoromethyl)-1,6-dihydropyridazin-4-yl)amino)hexyl)isoquinolin-1(2H)-one]
187 nM	CC[C@@H](CCCn1cnc2cc(-c3cnc(C(F)F)cn3)c(F)cc2c1=O)Nc1cn[nH]c(=O)c1C(F)(F)F [Example 346, (S)-7-(5-(difluoromethyl)pyrazin-2-yl)-6-fluoro-3-(4-((6-oxo-5-(trifluoromethyl)-1,6-dihydropyridazin-4-yl)amino)hexyl)quinazolin-4(3H)-one]
93.4 nM	CC[C@@H](CCCn1cnc2cc(-c3cnc(C(F)(F)F)c(N)n3)c(F)cc2c1=O)Nc1cn[nH]c(=O)c1C(F)(F)F [Example 347, (S)-7-(6-amino-5-(trifluoromethyl)pyrazin-2-yl)-6-fluoro-3-(4-((6-oxo-5-(trifluoromethyl)-1,6-dihydropyridazin-4-yl)amino)hexyl)quinazolin-4(3H)-one]
6.47 nM	CC[C@@H](CCCn1ccc2cc(-c3ncc(C(F)(F)F)c(N)n3)c(F)c(F)c2c1=O)Nc1cn[nH]c(=O)c1C(F)(F)F [Example 348, (S)-6-(4-amino-5-(trifluoromethyl)pyrimidin-2-yl)-7,8-difluoro-2-(4-((6-oxo-5-(trifluoromethyl)-1,6-dihydropyridazin-4-yl)amino)hexyl)isoquinolin-1(2H)-one]
11.8 nM	C[C@@H](CCCn1ccc2cc(-c3cnc(C(F)(F)F)c(N)n3)c(F)c(F)c2c1=O)Nc1cn[nH]c(=O)c1C(F)(F)F [Example 349, (S)-6-(6-amino-5-(trifluoromethyl)pyrazin-2-yl)-7,8-difluoro-2-(4-((6-oxo-5-(trifluoromethyl)-1,6-dihydropyridazin-4-yl)amino)pentyl)isoquinolin-1(2H)-one]
15.1 nM	CC[C@@H](CCCn1ccc2cc(-c3ncc(OC)c(N)n3)c(F)c(F)c2c1=O)Nc1cn[nH]c(=O)c1C(F)(F)F [Example 350, (S)-6-(4-amino-5-methoxypyrimidin-2-yl)-7,8-difluoro-2-(4-((6-oxo-5-(trifluoromethyl)-1,6-dihydropyridazin-4-yl)amino)hexyl)isoquinolin-1(2H)-one]
8.39 nM	C[C@@H](CCCn1ccc2cc(-c3cnc(Cl)c(N)n3)c(F)cc2c1=O)Nc1cn[nH]c(=O)c1C(F)(F)F [Example 351, (S)-6-(6-amino-5-chloropyrazin-2-yl)-7-fluoro-2-(4-((6-oxo-5-(trifluoromethyl)-1,6-dihydropyridazin-4-yl)amino)pentyl)isoquinolin-1(2H)-one]
64.4 nM	C[C@@H](CCCn1cnc2cc(-c3cnc(Cl)c(N)n3)c(F)cc2c1=O)Nc1cn[nH]c(=O)c1C(F)(F)F [Example 352, (S)-7-(6-amino-5-chloropyrazin-2-yl)-6-fluoro-3-(4-((6-oxo-5-(trifluoromethyl)-1,6-dihydropyridazin-4-yl)amino)pentyl)quinazolin-4(3H)-one]
16.1 nM	CC[C@@H](CCCn1ccc2cc(-c3ncc(C(F)(F)F)cn3)c(F)c(F)c2c1=O)Nc1cn[nH]c(=O)c1C(F)(F)F [Example 353, (S)-7,8-difluoro-2-(4-((6-oxo-5-(trifluoromethyl)-1,6-dihydropyridazin-4-yl)amino)hexyl)-6-(5-(trifluoromethyl)pyrimidin-2-yl)isoquinolin-1(2H)-one]
65.1 nM	C[C@@H](CCCn1cnc2cc(-c3nc(N)c4ccccc4n3)c(F)cc2c1=O)Nc1cn[nH]c(=O)c1C(F)(F)F [Example 354, (S)-4-amino-6'-fluoro-3'-(4-((6-oxo-5-(trifluoromethyl)-1,6-dihydropyridazin-4-yl)amino)pentyl)-[2,7'-biquinazolin]-4'(3'H)-one]
11.4 nM	CC[C@@H](CCCn1ccc2cc(-c3ncc(C(F)F)cn3)c(F)c(F)c2c1=O)Nc1cn[nH]c(=O)c1C(F)(F)F [Example 355, (S)-6-(5-(difluoromethyl)pyrimidin-2-yl)-7,8-difluoro-2-(4-((6-oxo-5-(trifluoromethyl)-1,6-dihydropyridazin-4-yl)amino)hexyl)isoquinolin-1(2H)-one]
4.9 nM	CC[C@@H](CCCn1ccc2cc(-c3ncc(C(F)F)c(N)n3)c(F)c(F)c2c1=O)Nc1cn[nH]c(=O)c1C(F)(F)F [Example 356, (S)-6-(4-amino-5-(difluoromethyl)pyrimidin-2-yl)-7,8-difluoro-2-(4-((6-oxo-5-(trifluoromethyl)-1,6-dihydropyridazin-4-yl)amino)hexyl)isoquinolin-1(2H)-one]
143 nM	C[C@@H](CCCn1ccc2cc(-c3nc(N)c4c(n3)COC4)c(F)cc2c1=O)Nc1cn[nH]c(=O)c1C(F)(F)F [Example 357, (S)-6-(4-amino-5,7-dihydrofuro[3,4-d]pyrimidin-2-yl)-7-fluoro-2-(4-((6-oxo-5-(trifluoromethyl)-1,6-dihydropyridazin-4-yl)amino)pentyl)isoquinolin-1(2H)-one]
1330 nM	C[C@@H](CCCn1ccc2cc(-c3nc(N)c4c(n3)C(C)(C)OC4)c(F)cc2c1=O)Nc1cn[nH]c(=O)c1C(F)(F)F [Example 358, (S)-6-(4-amino-7,7-dimethyl-5,7-dihydrofuro[3,4-d]pyrimidin-2-yl)-7-fluoro-2-(4-((6-oxo-5-(trifluoromethyl)-1,6-dihydropyridazin-4-yl)amino)pentyl)isoquinolin-1(2H)-one]
1.15 nM	CC[C@@H](CCCn1ccc2cc(-c3ncc(Cl)c(N)n3)c(F)c(F)c2c1=O)Nc1cn[nH]c(=O)c1C(F)(F)F [Example 359, (S)-6-(4-amino-5-chloropyrimidin-2-yl)-7,8-difluoro-2-(4-((6-oxo-5-(trifluoromethyl)-1,6-dihydropyridazin-4-yl)amino)hexyl)isoquinolin-1(2H)-one]
12.7 nM	CC[C@@H](CCCn1ccc2cc(-c3ncc(OC(F)F)c(N)n3)c(F)cc2c1=O)Nc1cn[nH]c(=O)c1C(F)(F)F [Example 360, (S)-6-(4-amino-5-(difluoromethoxy)pyrimidin-2-yl)-7-fluoro-2-(4-((6-oxo-5-(trifluoromethyl)-1,6-dihydropyridazin-4-yl)amino)hexyl)isoquinolin-1(2H)-one]
10.9 nM	CC[C@@H](CCCn1ccc2cc(-c3ncc(OC(F)F)c(N)n3)c(F)c(F)c2c1=O)Nc1cn[nH]c(=O)c1C(F)(F)F [Example 361, (S)-6-(4-amino-5-(difluoromethoxy)pyrimidin-2-yl)-7,8-difluoro-2-(4-((6-oxo-5-(trifluoromethyl)-1,6-dihydropyridazin-4-yl)amino)hexyl)isoquinolin-1(2H)-one]
15.7 nM	CC[C@@H](CCCn1ccc2cc(-c3cnc(C(F)(F)F)c(N)n3)c(F)c(F)c2c1=O)Nc1cn[nH]c(=O)c1C(F)(F)F [Example 362, (S)-6-(6-amino-5-(trifluoromethyl)pyrazin-2-yl)-7,8-difluoro-2-(4-((6-oxo-5-(trifluoromethyl)-1,6-dihydropyridazin-4-yl)amino)hexyl)isoquinolin-1(2H)-one]
3.28 nM	C[C@@H](CCCn1ccc2cc(-c3nc(N)c4ccccc4n3)c(F)cc2c1=O)Nc1cn[nH]c(=O)c1C(F)(F)F [Example 363, (S)-6-(4-aminoquinazolin-2-yl)-7-fluoro-2-(4-((6-oxo-5-(trifluoromethyl)-1,6-dihydropyridazin-4-yl)amino)pentyl)isoquinolin-1(2H)-one]
96.4 nM	CC[C@@H](CCCn1cnc2cc(-c3ncc(OC(F)F)c(N)n3)c(F)cc2c1=O)Nc1cn[nH]c(=O)c1C(F)(F)F [Example 364, (S)-7-(4-amino-5-(difluoromethoxy)pyrimidin-2-yl)-6-fluoro-3-(4-((6-oxo-5-(trifluoromethyl)-1,6-dihydropyridazin-4-yl)amino)hexyl)quinazolin-4(3H)-one]
